Source: US20250276996A1, “CATIONICALLY-ENFRAMED HIGH DENSITY AROMATIC PEPTIDES” (Research Foundation of the City University of New York, priority 2022, published 2025)
Entries after “also recorded” stand apart in the source; their conditions may differ. Non-standard residues stand in square brackets, D forms with d. No end group written: not given here.

How the values were obtained:
ARPE-19 cells = experiment: Mitochondrial potential in the presence of CCCP (TMRM); assay type: cell-based; settings: 10 μM of CCCP
Protocol: Effects of peptides on mitochondrial potential in the presence of Carbonyl cyanide m-chlorophenylhydrazone (CCCP): ARPE-19 cells (ATTC-CRL-2302) (5×10^4 cells) were seeded in 35 mm glass dishes in DMEM/F12 medium with 10% FBS for 24 hr. On the day of the experiment, cells were cultured in DMEM/F12 in the presence of different concentrations of biotin-HDAP2 for 60 min (FIG. 17B). Then, cells were incubated with 10 μM CCCP in the presence of 5 nM TMRM, 100 nM Mito View Green, and 10 μg/ml Hoechst 33342 for 15 min at 37° C. Fluorescent images were immediately obtained with a Nikon Eclipse 50i fluorescence microscope (60× objective) using FITC (Mito View Green), Texas Red (TMRM), and DAPI (Hoechst) filters. Images were collected from three independent experiments, using 4-6 random fields for each treatment group, and imaged and analyzed as described for NR.

[1] = tested on: antimycin-induced scratching; experiment: Topical antimycin-induced scratching; assay type: in vivo, C57BL/6J mice; settings: 100 μM topical with 200 μM antimycin
Protocol: However, antimycin-induced scratching in mice was […] by biotin-free HDAP2. Dermal administration of antimycin, a mitochondrial Complex III irreversible inhibitor, is known to induce ROS formation and oxidative stress in C fibers of sensory neurons, resulting in severe scratching in mice. Biotin-HDAP2 and biotin-free HDAP2 were tested to see if either can inhibit topical antimycin-induced itching in 12 months old C57BL/6J mice. […] Specifically, 200 μM of topical antimycin in methanol induced itching, which was monitored for 60 min. […] Error bars represent SEM (n=3) **P<0.001. Topical administration of 100 μM of biotin-free HDAP2 with antimycin increased scratching by 2.5 fold. Error bars represent SEM (n=3) ***P<0.0001.

MDBK cells = experiment: Cell survival in serum-free media (AlamarBlue); assay type: cell-based, bovine; settings: 1 μM, 5 days serum starvation
Protocol: Serum starvation experiments: Biotin-HDAP2's ability to improve cell viability and function following serum starvation was assessed. For all experiments, MDBK cells were seeded in 35 mm cell culture dishes (5×10^4 cells) in DMEM medium with 10% FBS (Fetal Bovine Serum) for 24 hrs and then incubated in serum-free medium with or without biotin-HDAP2 (1 μM) for 5 days to induce cell death. For quantitative measurements, wells were washed to remove dead cells, and then stained with AlamarBlue for 60 min. Quantitative analysis of dye conversion was measured using a fluorescent plate reader (550 ex/580 em) and cell viability was expressed as folds change (increase or decrease) over scrum-starved untreated cells.
Effects of peptides on cell survival in serum-free media: Cell survival in serum starvation conditions was studied in the presence and absence of biotin-HDAP2 using MDBK cells. Cells were plated at a density of 1-2×10^5 cells/well in 96 well plates in DMEM/10% FBS media. The following day, cells were washed and the medium replaced with DMEM serum-free media in the presence or absence of different concentrations of biotin-HDAP2 and incubated for 5 days. Cell viability was assessed using the Resaruzin (Alamar blue) indicator dye. Quantitative analysis of dye conversion was measured using a fluorescent plate reader (ex/em=550/580 nm) and viability was expressed as fold increase over of untreated cells.

Molecule | ΔΨm relative to control cells (ARPE-19 cells) | increase of scratching [1] | effect on antimycin-induced scratching ([1]; 60 min) | AlamarBlue fluorescence / protection during serum starvation (MDBK cells)
N#CC(C#N)=NNc1cccc(Cl)c1 [CCCP, carbonyl cyanide m-chlorophenylhydrazone, reference compound] | 20% | – | – | –
[dR]FF[dR] [biotin-free HDAP2] | – | 2.5 fold | potentiated | did not increase AlamarBlue fluorescence; also recorded: does not protect cells during serum starvation
